PMC8874984, “Improved Cell-Potent and Selective Peptidomimetic Inhibitors of Protein N-Terminal Methyltransferase 1” (Molecules, 2022)
Like-named read-outs stand apart in the source and are kept apart here.

Columns and labels:
me3-RCC1 [1] = tested on: me3-RCC1; parameters: method as in PMID 33738076; details: cited from earlier work
NTMT1 [2] = target: T1, NTMT1 (Homo sapiens, UniProt Q9BV86); details: cited from earlier work
T1 construct: made in house
T1 sequence (Q9BV86 1-223): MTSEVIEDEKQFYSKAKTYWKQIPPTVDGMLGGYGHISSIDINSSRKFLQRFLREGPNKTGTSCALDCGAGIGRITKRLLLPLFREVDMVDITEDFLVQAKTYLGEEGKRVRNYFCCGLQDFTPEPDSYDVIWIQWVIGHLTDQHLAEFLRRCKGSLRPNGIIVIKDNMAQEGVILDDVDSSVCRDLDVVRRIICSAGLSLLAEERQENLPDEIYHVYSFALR

[3] = tested on: NTMT1 knockout HCT116 cells; test: Cytotoxicity by alamarBlue assay in NTMT1 knockout HCT116 cells; type: cell-based, human; details: wild-type and NTMT1 knockout HCT116 cells
NTMT1 [4] = target: T1, NTMT1; test: SAHH-coupled fluorescence assay of NTMT1 inhibition; type: biochemical; details: for Expt. ΔGbind ± σ: estimated from the IC50 values in Table 1; for IC50/IC50 (DC541): ratio of NTMT1 IC50 to that of DC541
[5] = Cytotoxicity by alamarBlue assay in HCT116 cells; details: human, GI50, HCT116 cells
[6] = tested on: cellular α-N-terminal methylation level in HCT116 cells; test: Cellular N-terminal methylation level, Western blot with anti-me3-SPK antibody; type: cell-based; details: Homo sapiens, HCT-116, cellular N-terminal methylation inhibition, n = 2
Description: Next, we investigated the effects of all peptidomimetic inhibitors with GI50 > 100 µM and IC50 < 1 µM on the cellular α-N-terminal methylation level in HCT116 cells (Table 2). Then, we examined the top three cell-potent peptidomimetic inhibitors 1d–f on the dose-response of inhibition of cellular N-terminal methylation levels. […] As the biochemical IC50 value of GD562 was about three-fold higher than DC541, we proposed that the improved cellular inhibition of GD562 may be attributed to its increased permeability with higher cLogP than DC541.
Figure 5 Inhibition of cellular N-terminal methylation by peptidomimetic inhibitors in HCT116 cells. Representative Western blot results of the effects of GD562 (A), GD564 (B), and GD573 (C) on the cellular methylation level. Image quantification was performed using ImageJ software (NIH). […] All experiments were performed in duplicate (n = 2). […]
Cellular N-methylation level.
The gel was transferred to a
system. Image quantification was done using ImageJ software (NIH). All bands were compared
OrganicsTM, AC418900050) dissolved in sterile 1 x PBS. […]

in vitro [7] = details: PAMPA
NNMT = target: T2, NNMT (Homo sapiens, UniProt P40261); test: In-house selectivity study, fluorescence assay: NNMT; type: biochemical; details: read-out: inhibition of enzyme activity
T2 construct: made in house
T2 sequence (P40261 1-264): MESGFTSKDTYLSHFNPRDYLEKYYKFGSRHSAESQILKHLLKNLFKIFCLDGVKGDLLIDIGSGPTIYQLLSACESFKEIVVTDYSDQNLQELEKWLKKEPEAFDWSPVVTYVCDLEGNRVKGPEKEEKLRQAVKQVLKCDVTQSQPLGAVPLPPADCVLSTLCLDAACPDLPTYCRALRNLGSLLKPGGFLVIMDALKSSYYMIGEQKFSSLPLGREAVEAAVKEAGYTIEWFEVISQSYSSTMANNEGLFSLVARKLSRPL

SAHH = SAHH (Homo sapiens, UniProt P23526); test: In-house selectivity study, fluorescence assay: coupling enzyme SAHH; type: biochemical; details: n = 2
Chain of SAHH (P23526 whole entry, species assumed): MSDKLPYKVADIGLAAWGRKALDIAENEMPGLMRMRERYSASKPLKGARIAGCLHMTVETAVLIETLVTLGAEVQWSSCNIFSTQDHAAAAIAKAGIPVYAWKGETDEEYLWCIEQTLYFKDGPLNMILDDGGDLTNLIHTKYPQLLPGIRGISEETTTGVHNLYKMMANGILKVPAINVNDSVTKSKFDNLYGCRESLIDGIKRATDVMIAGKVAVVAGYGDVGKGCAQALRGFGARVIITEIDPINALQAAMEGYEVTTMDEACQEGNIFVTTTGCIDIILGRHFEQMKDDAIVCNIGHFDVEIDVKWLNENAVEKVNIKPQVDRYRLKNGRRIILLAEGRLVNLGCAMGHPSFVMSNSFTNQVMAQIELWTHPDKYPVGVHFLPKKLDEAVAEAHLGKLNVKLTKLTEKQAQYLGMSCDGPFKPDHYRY
Description: Figure 6 In-house selectivity studies of GD562. The compound was tested at 100, 30, and 10 µM (n = 2). Both SAM and substrate are at their Km values.

me3-RCC1 [8] = test: Cellular me3-RCC1 level in HCT116 cells; type: cell-based, human
SETD7 = target: T3, SETD7 (Homo sapiens, UniProt Q8WTS6); test: In-house selectivity study, fluorescence assay: SETD7; type: biochemical; details: read-out: inhibition of enzyme activity
T3 construct: made in house
T3 sequence (Q8WTS6 1-366): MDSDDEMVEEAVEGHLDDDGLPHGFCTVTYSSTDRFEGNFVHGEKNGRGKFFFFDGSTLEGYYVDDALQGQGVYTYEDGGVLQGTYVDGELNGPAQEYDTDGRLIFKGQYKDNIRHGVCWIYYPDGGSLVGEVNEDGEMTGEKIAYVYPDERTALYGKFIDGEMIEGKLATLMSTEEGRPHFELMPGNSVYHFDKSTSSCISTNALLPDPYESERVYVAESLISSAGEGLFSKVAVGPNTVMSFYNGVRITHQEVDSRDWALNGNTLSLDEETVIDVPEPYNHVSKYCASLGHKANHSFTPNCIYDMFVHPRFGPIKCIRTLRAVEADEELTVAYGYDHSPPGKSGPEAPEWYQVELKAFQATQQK

TbPRMT7 = TbPRMT7 (Trypanosoma brucei brucei, UniProt Q582G4); test: biochemical; details: read-out: inhibition of enzyme activity
Chain of TbPRMT7 (Q582G4 whole entry): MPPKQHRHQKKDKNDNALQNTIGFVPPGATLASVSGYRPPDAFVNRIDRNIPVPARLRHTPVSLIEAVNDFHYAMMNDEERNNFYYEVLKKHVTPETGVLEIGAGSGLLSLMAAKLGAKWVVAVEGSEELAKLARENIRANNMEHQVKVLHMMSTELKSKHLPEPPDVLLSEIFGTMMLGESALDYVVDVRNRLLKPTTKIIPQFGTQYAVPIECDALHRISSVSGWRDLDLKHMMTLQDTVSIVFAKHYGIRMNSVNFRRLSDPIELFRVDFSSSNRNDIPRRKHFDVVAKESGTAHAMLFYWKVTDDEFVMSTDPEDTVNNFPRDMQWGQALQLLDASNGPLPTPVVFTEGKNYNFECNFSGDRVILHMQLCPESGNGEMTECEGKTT

G9a = target: T4, G9a (Homo sapiens, UniProt Q96KQ7); test: In-house selectivity study, fluorescence assay: G9a; type: biochemical; details: read-out: inhibition of enzyme activity
T4 sequence (Q96KQ7 1-1210): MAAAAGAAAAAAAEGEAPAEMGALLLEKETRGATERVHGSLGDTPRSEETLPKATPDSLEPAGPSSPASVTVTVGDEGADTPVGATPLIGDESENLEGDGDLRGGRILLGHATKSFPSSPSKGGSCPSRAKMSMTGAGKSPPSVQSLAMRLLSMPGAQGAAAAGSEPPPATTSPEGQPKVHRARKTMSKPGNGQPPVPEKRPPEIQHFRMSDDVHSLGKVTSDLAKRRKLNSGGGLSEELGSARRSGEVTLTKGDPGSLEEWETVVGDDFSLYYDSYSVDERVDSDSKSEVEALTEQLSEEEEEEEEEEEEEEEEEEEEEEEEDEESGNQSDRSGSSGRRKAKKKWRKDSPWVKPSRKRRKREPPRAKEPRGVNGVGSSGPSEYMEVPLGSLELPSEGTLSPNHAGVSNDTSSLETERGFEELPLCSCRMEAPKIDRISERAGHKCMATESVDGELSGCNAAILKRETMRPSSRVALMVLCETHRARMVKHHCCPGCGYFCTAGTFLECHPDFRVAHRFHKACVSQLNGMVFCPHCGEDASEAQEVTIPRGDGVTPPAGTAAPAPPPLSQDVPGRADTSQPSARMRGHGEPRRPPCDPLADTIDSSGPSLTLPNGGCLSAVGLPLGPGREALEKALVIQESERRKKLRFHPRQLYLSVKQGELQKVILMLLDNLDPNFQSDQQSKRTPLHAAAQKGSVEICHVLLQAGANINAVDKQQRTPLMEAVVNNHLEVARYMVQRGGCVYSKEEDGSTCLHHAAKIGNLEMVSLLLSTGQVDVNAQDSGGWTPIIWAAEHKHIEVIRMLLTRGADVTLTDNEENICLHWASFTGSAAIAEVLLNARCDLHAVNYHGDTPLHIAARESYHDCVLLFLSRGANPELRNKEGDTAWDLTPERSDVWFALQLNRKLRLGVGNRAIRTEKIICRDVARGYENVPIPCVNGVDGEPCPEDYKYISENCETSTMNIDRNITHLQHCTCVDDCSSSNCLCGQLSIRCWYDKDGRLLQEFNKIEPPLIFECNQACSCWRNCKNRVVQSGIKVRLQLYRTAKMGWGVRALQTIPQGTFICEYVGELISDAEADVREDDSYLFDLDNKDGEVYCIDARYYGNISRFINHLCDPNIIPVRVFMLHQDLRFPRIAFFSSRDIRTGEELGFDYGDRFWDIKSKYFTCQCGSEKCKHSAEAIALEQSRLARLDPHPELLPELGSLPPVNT

PRMT1 = target: T5, PRMT1 (Homo sapiens, UniProt Q99873); test: In-house selectivity study, fluorescence assay: PRMT1; type: biochemical; details: read-out: inhibition of enzyme activity
T5 construct: made in house
T5 sequence (Q99873 whole entry, species assumed): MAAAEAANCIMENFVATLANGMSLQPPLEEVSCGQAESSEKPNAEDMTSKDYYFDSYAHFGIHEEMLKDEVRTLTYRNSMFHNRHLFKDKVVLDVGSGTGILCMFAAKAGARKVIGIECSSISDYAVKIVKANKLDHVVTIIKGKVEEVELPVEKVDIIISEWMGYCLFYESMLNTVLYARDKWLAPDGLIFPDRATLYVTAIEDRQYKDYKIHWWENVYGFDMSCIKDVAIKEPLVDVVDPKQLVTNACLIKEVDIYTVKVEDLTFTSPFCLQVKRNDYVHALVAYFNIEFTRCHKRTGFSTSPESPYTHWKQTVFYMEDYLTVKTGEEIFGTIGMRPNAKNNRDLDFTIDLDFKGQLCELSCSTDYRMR

me3-SET [9] = test: Cellular me3-SET level in HCT116 cells; type: cell-based, human
[10] = Parallel Artificial Membrane Permeability Assay (PAMPA)
in vitro [11] = details: human
HCT116 cells = test: Cytotoxicity by alamarBlue assay in HCT116 cells
me3-SET [12] = tested on: me3-SET; parameters: method as in PMID 33738076; details: even at 300 µM in HCT116 cells; cited from earlier work
[13] = SAHH-coupled fluorescence assay, n = 2, mean ± SD, read-out: IC50

Row | Compound | IC50 (NTMT1 [4]; [13]) [µM] | Expt. ΔGbind ± σ (NTMT1 [4]) [kcal/mol] | IC50/IC50 (DC541) (NTMT1 [4]) | IC50 [6] [µM] | Papp (in vitro [7]) [×10⁻⁶ cm/s] | GI50 [5] [µM] | further results
1 | NCCCC[C@H](NC(=O)[C@@H]1CCCN1C(=O)Cc1ccc(O)cc1)C(=O)N[C@@H](CCCN=C(N)N)C(N)=O [BM30] |  |  |  |  |  |  | IC50 (me3-RCC1 [1]; Figure 1, previously reported inhibitors, read-out: Celluar IC50): > 1000 µM; selectivity for NTMT1/2 among a panel of 41 methyltransferases (NTMT1 [2]): over 100 fold; IC50 (NTMT1 [2]; previously reported inhibitor): 0.89 ± 0.1 µM
2 | NCCCCC(NC(=O)C1CCCN1C(=O)Cc1cccc2ccccc12)C(=O)Nc1cccc(Br)c1 (stereo not shown) [Compound 1a] | 0.17 ± 0.008 | -9.24 ± 0.04 | 0.50 |  |  | < 70 | GI50 in NTMT1 knockout versus wild-type HCT116 cells [3]: comparable GI50 value
3 | NCCCCC(NC(=O)C1CCCN1C(=O)Cc1cccc2ccccc12)C(=O)Nc1ccc(Br)cc1 (stereo not shown) [Compound 1b] | 0.18 ± 0.007 | -9.20 ± 0.03 | 0.53 |  |  | < 70 | 
4 | NCCCCC(NC(=O)C1CCCN1C(=O)Cc1cccc2ccccc12)C(=O)NCc1ccccc1 (stereo not shown) [Compound 1c] | 0.91 ± 0.03 | -8.24 ± 0.03 | 2.7 | < 300 | 0.24 ± 0.06 | > 300 | 
5 | NCCCCC(NC(=O)C1CCCN1C(=O)Cc1cccc2ccccc12)C(=O)NCCc1ccccc1 (stereo not shown) [Compound 1d] |  |  |  | ~50 | 0.26 ± 0.06 | > 300 | inhibition at 100 µM (NNMT): ≤ 50%; inhibition at 100 µM (SAHH): ≤ 50%; increase in cellular inhibition activity on me3-RCC1 compared to DC541 (me3-RCC1 [8]): over 2 fold; IC50 (me3-RCC1 [8]; Homo sapiens, HCT-116): ~50 µM; inhibition at 100 µM (SETD7): ≤ 50%; inhibition at 100 µM (TbPRMT7): ≤ 50%; inhibition at 100 µM (G9a): ≤ 50%; inhibition at 100 µM (PRMT1): ≤ 50%; increase of inhibitory activity for the SET protein compared with DC541 (me3-SET [9]): over 6 fold; IC50 (me3-SET [9]; Homo sapiens, HCT-116): ~50 µM
6 | NCCCCC(NC(=O)C1CCCN1C(=O)Cc1cccc2ccccc12)C(=O)NCCCc1ccccc1 (stereo not shown) [Compound 1e] |  | -8.44 ± 0.01 | 1.9 | ~100 |  |  | Papp [10]: 0.17 ± 0.08 ×10⁻⁶ cm/s; IC50 (NTMT1 [4]): 0.65 ± 0.01 µM; GI50 (in vitro [11]): > 300 µM

More lines, main results first:

Row | IC50 (NTMT1 [4]; [13]) [µM] | Expt. ΔGbind ± σ (NTMT1 [4]) [kcal/mol] | IC50/IC50 (DC541) (NTMT1 [4]) | IC50 [6] [µM] | Papp (in vitro [7]) [×10⁻⁶ cm/s] | Compound | GI50 [5] [µM] | further results
7 | 0.94 ± 0.03 | -8.22 ± 0.03 | 2.8 | ~100 | 0.47 ± 0.07 | NCCCCC(NC(=O)C1CCCN1C(=O)Cc1cccc2ccccc12)C(=O)NCC1CCCCC1 (stereo not shown) [Compound 1f] | > 300 | 
8 | 0.58 ± 0.03 | -8.51 ± 0.04 | 1.7 | < 300 | 0.6 ± 0.1 | NCCCC[C@H](NC(=O)[C@@H]1CCCN1C(=O)Cc1cccc2ccccc12)C(=O)NCc1cccc(Br)c1 [Compound 1g] | ~130 | GI50 (HCT116 cells): 128 ± 20 µM
9 | 0.82 ± 0.07 | -8.30 ± 0.07 | 2.4 | < 300 | 0.9 ± 0.2 | NCCCC[C@H](NC(=O)[C@@H]1CCCN1C(=O)Cc1cccc2ccccc12)C(=O)NCc1ccc(Br)cc1 [Compound 1h] | ~130 | GI50 (HCT116 cells): 135 ± 23 µM
10 | 1.7 ± 0.07 |  | 5.0 |  |  | CN(CCc1ccccc1)C(=O)C(CCCCN)NC(=O)C1CCCN1C(=O)Cc1cccc2ccccc12 (stereo not shown) [Compound 1i] |  | 
11 |  |  | 7.4 |  | 0.9 ± 0.3 | NCCCCC(NC(=O)C1CCCN1C(=O)Cc1cccc2ccccc12)C(=O)NCCc1ccc(-c2ccccc2)cc1 (stereo not shown) [Compound 1j] |  | 
12 |  |  | 2.0 |  | 1.3 ± 0.4 | NCCCCC(NC(=O)C1CCCN1C(=O)Cc1cccc2ccccc12)C(=O)NCCc1cccc(-c2ccccc2)c1 (stereo not shown) [Compound 1k] | < 70 | GI50 (HCT116 cells): 65 ± 7 µM
13 | 0.34 ± 0.03 | -8.82 ± 0.07 | 1.0 |  |  | NCCCCC(NC(=O)C1CCCN1C(=O)Cc1cccc2ccccc12)C(=O)Nc1ccccc1C(N)=O (stereo not shown) [DC541, reference compound] |  | IC50 (me3-RCC1 [1]; HCT116 cells, read-out: cellular IC50 on the me3-RCC1 level): ~100 µM; inhibition of me3-SET level (me3-SET [12]): did not show any inhibition
